Assay results: patent US12377098B2, “Compositions and methods for the treatment of alopecia” (Follea International, priority 2023, dated 2025)

System: scalp SULT1A1 enzyme
Settings: oral, 20 subjects

O=C([O-])O.[Na+] [sodium bicarbonate]
subjects in whom the scalp SULT1A1 enzyme was induced (dosages exceeding 1,000 mg q.d.): 18% | induction of the scalp SULT1A1 enzyme (dosages less than 500 mg q.d.): did induce
